# Data from patent US8362066B2, “Compounds and methods for treating protein folding disorders” (Treventis Corporation, priority 2006, dated 2013).
# pIC50: −log10 of the molar value.
# Target: T1, Aβ1-40 (Homo sapiens, UniProt P05067)
# T1 construct: Both Aβ1-40 and Aβ1-42 were purchased from Anaspec; purchased Anaspec
# Assay: ThT fluorescence assay, inhibition of Aβ1-40 aggregation
# Type: biochemical
# Experimental: The compounds of the invention were evaluated for activity against Aβ aggregation in a kinetic thioflavin T (ThT) fluorescence assay similar to that of Chalifour, R. J., et al., J. Biol. Chem. (2003) 278: 34874-81. IC50 values for inhibition of Aβ1-40 aggregation in the ThT fluorescence assay for a number compounds of the present invention were determined. Values were calculated by solving the equation y=(m2)/(1+(x/m3)^m4) where y is percent aggregation, x is compound concentration, and m3 is the concentration giving 50% aggregation (i.e. IC50), using KaleidaGraph 4.0 (Synergy Software). Dye-binding ThT/ThS protein aggregation assays for Aβ, tau and α-synuclein were performed as described in Example 8 of US2007/0015813.
# T1 sequence (P05067 672-711 limits assumed): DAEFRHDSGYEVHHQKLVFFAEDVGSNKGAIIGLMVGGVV
row,pIC50,SMILES
1,5.24,COc1ccc2[nH]cc(-c3c[nH]c4ccc([N+](=O)[O-])cc34)c2c1 [QR-0171]
2,4.45,COc1ccc2cc(-c3c[nH]c4ccc(C(=O)O)cc34)ccc2c1 [QR-0216]
3,5.15,"Oc1ccc2cc(-c3c[nH]c4ccc(O)cc34)ccc2c1 [QR-0225, 5-Hydroxy-3-(2-hydroxynaphthalen-6-yl)-1H-indole]"
4,4.72,"Oc1ccc2cc(-c3ccc4c(c3)OCCO4)ccc2c1 [QR-0229, 6-(2,3-Dihydrobenzo[b][1,4]dioxin-7-yl)naphthalene-2-ol]"
5,4.56,"Oc1cc2ccccc2c(-c2ccc3c(c2)OCCO3)c1O [QR-0231, 1-(2,3-Dihydrobenzo[b][1,4]dioxin-7-yl)-2,3-dihydroxynaphthalene]"
6,4.68,COc1ccc2[nH]cc(-c3c[nH]c4ccc(C#N)cc34)c2c1 [QR-0238]
7,4.92,N#Cc1ccc2[nH]cc(-c3c[nH]c4ccc(Br)cc34)c2c1 [QR-0240]
8,4.93,O=C(O)c1ccc2c(-c3c[nH]c4ccc(O)cc34)c[nH]c2c1 [QR-0253]
9,4.77,O=C(O)c1cccc2c(-c3cc4ccccc4o3)c[nH]c12 [QR-0256]
10,5.00,"O=C(O)c1cccc2c(-c3ccc4cc(O)ccc4c3)c[nH]c12 [QR-0258, 3-(2-Hydroxynaphthalen-6-yl)-1H-indole-7-carboxylic acid]"
11,4.99,O=C(O)c1cccc2c(-c3cc4ccccc4s3)c[nH]c12 [QR-0261]
12,< 3.70,Oc1ccc2[nH]cc(CN3CCc4ccccc4C3)c2c1 [QR-0269]
13,< 4.30,"O=C(O)c1cccc2c(-c3cc4ccccc4o3)cn(Cc3ccccc3)c12 [QR-0284, 3-Benzofuran-2-yl-1-benzyl-1H-indole-7-carboxylic acid]"
14,4.71,"O=C(O)c1cccc2c(-c3cc4ccccc4s3)cn(Cc3ccccc3)c12 [QR-0287, 3-(Benzo[b]thiophen-2-yl)-1-benzyl-1H-indole-7-carboxylic acid]"
15,6.27,COc1ccc(Nc2ccc(Nc3ccc(OC)cc3)cc2)cc1 [QR-0292]
16,6.24,"Oc1ccc2cc(-c3cc4ccccc4o3)ccc2c1Br [QR-0297, 6-(Benzofuran-2-yl)-1-bromonaphthalen-2-ol]"
17,5.77,Nc1ccc2[nH]cc(-c3c[nH]c4ccc(Br)cc34)c2c1 [QR-0300]
18,5.49,Nc1ccc2[nH]cc(-c3c4ccccc4cc4c3[nH]c3ccc(N)cc34)c2c1 [QR-0302]
19,4.68,O=C(O)c1cccc2c(-c3c[nH]c4ccc(Br)cc34)c[nH]c12 [QR-0303]
20,5.19,N#Cc1ccc2[nH]cc(-c3ccc4cc(O)ccc4c3)c2c1 [QR-0313]
21,5.24,COc1cccc(Nc2cccc(Nc3cccc(OC)c3)c2)c1 [QR-0315]
22,< 4.30,COc1ccccc1Nc1cccc(Nc2ccccc2OC)c1 [QR-0316]
23,5.62,Oc1ccc(Nc2cccc(Nc3ccc(O)cc3)c2)cc1 [QR-0319]
24,5.03,N#Cc1ccc2[nH]cc(-c3c(O)c(O)cc4ccccc34)c2c1 [QR-0321]
25,5.99,Oc1ccc(Nc2cccc(Nc3ccc(O)cc3)c2)cc1 [QR-0325]
26,5.48,Oc1cccc(Nc2cccc(Nc3cccc(O)c3)c2)c1 [QR-0326]
27,4.94,O=C(O)c1ccc2c(-c3c[nH]c4ccc([N+](=O)[O-])cc34)c[nH]c2c1 [QR-0327]
